Data as given in patent publication US5426186A (priority 1993, dated 1995).
Structures can show the parent of a compound that is named as a salt.

Each compound was assayed against GABAa receptor (assay: GABAa receptor binding assay, displacement of 3H-RO15-1788 from rat cortical tissue). Details: 0.5 nM 3H-RO15-1788, rat cortical homogenate, 4° C., nonspecific binding with 1.0 μM diazepam.
Experimental: The pharmaceutical utility of compounds of this invention are indicated by the following assay for GABAa receptor activity.
Assays are carried out as described in Thomas and Tallman (J. Bio. Chem. 156: 9838-9842, J. Neurosci. 3:433-440, 1983). Rat cortical tissue is dissected and homogenized in 25 volumes (w/v) of 0.05M Tris HCl buffer (pH 7.4 at 4° C.). The tissue homogenate is centrifuged in the cold (4°) at 20,000×g for 20'. The supernatant is decanted and the pellet is rehomogenized in the same volume of buffer and again centrifuged at 20,000×g. The supernatant is decanted and the pellet is frozen at -20° C. overnight. The pellet is then thawed and rehomogenized in 25 volume (original wt/vol) of buffer and the procedure is carried out twice. The pellet is finally resuspended in 50 volumes (w/vol of 0.05M Tris HCl buffer (pH 7.4 at […]).
Incubations contain 100 μl of tissue homogenate, 100 μl of radioligand 0.5 nM (^3 H-RO15-1788 specific activity 80 Ci/mmol), drug or blocker and buffer to a total volume of 500 μl. Incubations are carried for 30 rain at 4° C. then are rapidly filtered through GFB filters to separate free and bound ligand. Filters are washed twice with fresh 0.05M Tris HCl buffer (pH 7.4 at 4° C.) and counted in a liquid scintillation counter 1.0 μM diazepam is added to some tubes to determine nonspecific binding. Data are collected in triplicate determinations, averaged and % inhibition of total specific binding is calculated. Total Specific Binding=Total-Nonspecific. In some cases, the amounts of unlabeled drugs is varied and total displacement curves of binding are carried out. Data are converted to a form for the calculation of IC50 and Hill Coefficient (nH).

SMILES	IC50 [nM]
Nc1nc2c(c3nc(-c4ccccc4F)cn13)CCCC2 [Compound 33, 5-Amino-2-(2-fluorophenyl)-7,8,9,10-tetrahydro-imidazo[1,2-c]-quinazoline]	100
O=c1[nH]c2c(c3nc(-c4ccccc4)cn13)CCCCC2 [Compound 13, 2-Phenyl-8,9,10,11-tetrahydro-7H-cyclohept[g]-imidazo[1,2-c]pyrimidin-5(6H)-one]	800
CC(C)OC(=O)C1CCc2[nH]c(=O)n3cc(-c4ccccc4F)nc3c2C1 (stereo not shown) [Compound 14, 9-Carboisopropoxy-2-(2-fluorophenyl)-7,8,9,10-tetrahydro-imidazo[1,2-c]-quinazolin-5(6H)-one]	10
CCOC(=O)C1CCc2[nH]c(=O)n3cc(-c4ccccc4F)nc3c2C1 (stereo not shown) [Compound 1, 9-Carboethoxy-2-(2-fluorophenyl)-7,8,9,10-tetrahydro-imidazo[1,2-c]-quinazolin-5(6H)-one]	7
Fc1ccccc1-c1cn2c(NCc3ccccc3)nc3c(c2n1)CCCC3 [Compound 31, 5-(N-benzylamino)-2-(2-fluorophenyl)-7,8,9,10-tetrahydro-imidazo[1,2-c]-quinazoline]	2000
O=c1[nH]c2c(c3nc(-c4ccccc4F)cn13)CCCC2 [Compound 5, 2-(2-Fluorophenyl)-7,8,9,10-tetrahydro-imidazo[1,2-c]-quinazolin-5(6H)-one]	7
CCOc1nc2c(c3nc(-c4ccccc4F)cn13)CCCC2 [Compound 39, 5-Ethoxy-2-(2-fluorophenyl)-7,8,9,10-tetrahydro-imidazo[1,2-c]-quinazoline]	5000
COc1ccc(-c2cn3c(=O)[nH]c4c(c3n2)CCCC4)cc1 [Compound 50, 2-(4-Methoxyphenyl)-7,8,9,10-tetrahydro-imidazo[1,2-c]-quinazolin-5(6H)-one]	50
COc1ccc(-c2cn3c(=O)[nH]c4c(c3n2)CCCC4)c(F)c1 [Compound 51, 2-(2-Fluoro-4-methoxyphenyl)-7,8,9,10-tetrahydro-imidazo[1,2-c]-quinazolin-5(6H)-one]	3
O=c1[nH]c2c(c3nc(-c4ccccc4)cn13)CCC2 [Compound 12, 2-Phenyl-8,9-dihydro-7H-cyclopent[g]-imidazo[1,2-c]-pyrimidin-5(6H)-one]	400
CC(C)(C)OC(=O)NC1CCc2[nH]c(=O)n3cc(-c4ccccc4F)nc3c2C1 (stereo not shown) [Compound 28, 9-(t-Butoxycarbonylamino)-2-(2-fluorophenyl)-7,8,9,10-tetrahydro-imidazo[1,2-c]-quinazolin-5(6H)-one]	150
CN(C)CC1CCc2[nH]c(=O)n3cc(-c4ccccc4F)nc3c2C1 (stereo not shown) [Compound 24, 9-(N,N-Dimethylaminomethyl)-2-(2-fluoropenyl)-7,8,9,10-tetrahydro-imidazo[1,2-c]-quinazolin-5(6H)-one monohydrochloride]	30
CN(C)C(=O)C1CCc2[nH]c(=O)n3cc(-c4ccccc4F)nc3c2C1 (stereo not shown) [Compound 18, 9-(N,N-Dimethylcarbamyl)-2-(2-fluorophenyl)-7,8,9,10-tetrahydro-imidazo[1,2-c]-quinazolin-5(6H)-one]	10
